Test results reported in patent US7091183B1 (Boston Medical Center Corporation, priority 1996, dated 2006).
Where no end group is shown, it is not given here.

Tests used:
rat GIP receptor [1] = biological target: T1, rat GIP receptor (Rattus norvegicus, UniProt P43219); experiment: cAMP-dependent β-galactosidase production in LGIPR2 cells (agonist activity); format: cell-based
T1 construct: expressed in transfected cells; host or cells: L cells (LGIPR2), also carrying a VIP-promoter/lacZ cAMP reporter
T1 sequence (P43219 19-455): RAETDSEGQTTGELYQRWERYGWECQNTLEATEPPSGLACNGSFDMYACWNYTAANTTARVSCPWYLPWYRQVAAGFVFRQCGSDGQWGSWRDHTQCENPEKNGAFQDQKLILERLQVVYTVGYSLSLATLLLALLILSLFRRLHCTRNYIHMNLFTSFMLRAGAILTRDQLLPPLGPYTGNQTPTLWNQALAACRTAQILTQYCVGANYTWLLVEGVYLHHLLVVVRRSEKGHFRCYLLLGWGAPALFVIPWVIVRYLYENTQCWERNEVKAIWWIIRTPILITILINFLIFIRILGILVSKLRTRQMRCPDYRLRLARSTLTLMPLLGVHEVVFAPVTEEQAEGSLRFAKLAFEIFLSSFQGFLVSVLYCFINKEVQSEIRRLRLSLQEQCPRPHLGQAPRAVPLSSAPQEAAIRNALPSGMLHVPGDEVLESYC
Excerpt: LGIPR2 cells are stably transfected with a cAMP-dependent promoter from the VIP gene fused to the bacterial lac Z gene. When intracellular cAMP increases within these cells, lac Z gene transcription is activated, resulting in the accumulation of its product, β-galactosidase. The measurement of β-galactosidase in this system provided a convenient, inexpensive, and nonradioactive method for detecting changes in the levels of intracellular cAMP. […] The medium was then removed and wells rinsed once with phosphate-buffered saline (PBS). The plates were then blotted briefly and frozen overnight at −70° C., and, after the addition of chlorophenol red-β-D-galactopyranoside, accumulated β-galactosidase was detected using a calorimetric assay, as described previously (Usdin, et al., 1993, Endocrinology, 133:2861–2870). […] Natl. Acad. Sci. USA, 90:1992–1996).

rat GIP receptor [2] = biological target: T1, rat GIP receptor; experiment: Inhibition of GIP (1–42)-stimulated cAMP-dependent β-galactosidase production in LGIPR2 cells; format: cell-based
Description: LGIPR2 cells are stably transfected with a cAMP-dependent promoter from the VIP gene fused to the bacterial lac Z gene. When intracellular cAMP increases within these cells, lac Z gene transcription is activated, resulting in the accumulation of its product, β-galactosidase. The measurement of β-galactosidase in this system provided a convenient, inexpensive, and nonradioactive method for detecting changes in the levels of intracellular cAMP.
LGIPR2 cells were grown in Dulbecco's Modified Eagle's Medium (DMEM) containing 4.5 g/L of glucose and 10% fetal calf serum. For each assay, 10^5 cells/well were seeded onto 24-well plates. After incubation overnight, peptides were added in various concentrations to the wells in the absence of 3-isobutyl-methylxanthine (IBMX) for 4 h, at which time maximal stimulation of β-galactosidase was determined. The medium was then removed and wells rinsed once with phosphate-buffered saline (PBS). The plates were then blotted briefly and frozen overnight at −70° C., and, after the addition of chlorophenol red-β-D-galactopyranoside, accumulated β-galactosidase was detected using a calorimetric assay, as described previously (Usdin, et al., 1993, Endocrinology, 133:2861–2870).
Values are expressed as the mean±SE of quadruplicate measurements.

fasted anesthetized rats = experiment: Intravenous infusion of peptides in fasting anesthetized rats, plasma insulin; format: in vivo, rat
conscious trained rats = experiment: Postprandial plasma insulin, serum glucose and GLP-1 in trained conscious fed rats; format: in vivo, rat; conditions: for postprandial plasma insulin concentration: chow 30 min
Description: Postprandial plasma insulin and serum glucose levels were studied in conscious trained rats. […] To avoid such a response, rats were trained for 10 d before experimentation. They were fasted from 17:00 to 08:00, and 0.9% NaCl (0.3 ml) was injected subcutaneously at 08:00 before feeding. After the injection of 0.9% NaCl, animals were given rat chow for 30 min, after which it was removed. At the end of ten days, the rats were accustomed to the injection and ate quickly (consuming 4–6 g of rat chow within 30 min).
On the day of the experiment, after fasting from 17:00 the night before, trained rats were injected subcutaneously at 08:00 with 0.3 ml of either 0.9% NaCl or ANTGIP (SEQ ID NO:8) (100 nmol/kg). This dose was chosen to approximately the amount of peptide used in the anesthetized animal studies of Example 3. After injection, six of the fasted control rats were killed to obtain baseline serum glucose and insulin levels. ANTGIP (SEQ ID NO:8)- or 0.9% NaCl-treated rats (n=6 in each group) were exposed to chow for 30 min, after which food was withdrawn.

rats = experiment: Oral glucose tolerance test in rats; format: in vivo, rat; conditions: ANTGIP 300 ng/kg i.p., glucose 1 g per kg by gavage
Description: Oral glucose tolerance tests were performed on rats injected intraperitoneally with ANTGIP (SEQ ID NO:8) (300 ng/kg) or 0.9% saline solution. After the intraperitoneal injection of 0.9% NaCl or ANTGIP (SEQ ID NO:8), an oral glucose tolerance test was performed. The test was done by administering a 40% glucose solution by oral gavage at a dose of 1 g per kg. The volume administered to each rat was approximately 0.5 ml. Blood was obtained at various time points for subsequent measurement of plasma insulin and glucose levels.

[3] = tested on: jejunal test segment of anesthetized rats; experiment: Intestinal glucose absorption from perfused jejunal segment; format: in vivo, rat; conditions: ANTGIP 10 nmol/kg i.v. single injection, 30 minute perfusion
Description: Male Sprague-Dawley rats weighing about 200–250 g are fasted overnight and anesthetized using intraperitoneal urethane (about 1.25 g per kg body weight). After midline laparotomy, an about 30-cm segment of jejunum, starting at about 5 cm distal to the ligament of Treitz, is isolated and flushed with approximately 20 ml of about 0.9% NaCl. The jejunal test segments are each perfused twice, initially with control buffer and then once again with control buffer or with the test solution. The test solution consists of Kres-Ringer-bicarbonate buffer containing about 5 mmol/L [^14C]D-glucose, and ^3H-labeled polyethylene glycol is included in the luminal perfusate to correct for fluid movement. The test or control solution is perfused through the jejunal segment without recirculation at a flow rate of about 1.6 ml/min, using a Harvard PHD 2000 syringe pump (Harvard Apparatus, Millis, Mass.). The effluent from the luminal segment is collected at about 5-min intervals for about 30 min. After the initial period of perfusion, the luminal contents in the jejunum are flushed with about 20 ml of about 0.9% NaCl prior to the initiation of the second period of perfusion.
Data points are believed to represent the rate of glucose disappearance from the luminal perfusate corrected for fluid movement. Results are expressed as the mean±SE of five experiments. […]

[4] = 20 min, ANTGIP 100 nmol/kg s.c.
[5] = 40 min, ANTGIP 100 nmol/kg s.c.

ISDYSIAMDKIRQQDFVNWLLAQK-NH2 [ANTGIP, GIP (7–30)-NH2]
stimulation of cAMP-dependent β-galactosidase production (versus GIP (1–42) / above control levels) (rat GIP receptor [1]; 10^−8 M peptide, 4 h): none | increase in cAMP-dependent β-galactosidase level (rat GIP receptor [1]; concentration as high as 10^−4 M): did not stimulate a detectable increase | IC50 (rat GIP receptor [2]): 100 nM | antagonism of the cAMP stimulatory effect of GIP (1–42) (rat GIP receptor [2]; 10^−8 M GIP (1–42) plus fragment at 10^−8 M or 10^−6 M, 4 h): attenuate the cAMP stimulatory effects | change in the insulin response to GLP-1, glucose or arginine (fasted anesthetized rats; ANTGIP 100 nmol/kg concomitantly): No significant change | effect on the insulinotropic properties of GIP (fasted anesthetized rats; ANTGIP 100 nmol/kg concomitantly with GIP 1.5 nmol/kg): completely abolished | effect on insulin secretion, alone (fasted anesthetized rats; ANTGIP infusion alone, 30 min): had no effect on insulin secretion | postprandial serum GLP-1 level (conscious trained rats; [4]): 290 ± 10 pg/mL | postprandial plasma insulin concentration (conscious trained rats; [4]): 25.3±4.7 μIU/ml | postprandial serum GLP-1 concentration (conscious trained rats; [5]): 330±20 pg/mgl | postprandial plasma insulin concentration (conscious trained rats; [5]): 27.1±2.6 μIU/ml | postprandial serum glucose concentration versus saline (conscious trained rats; ANTGIP 100 nmol/kg s.c.): similar | decrease in postprandial insulin release (conscious trained rats; chow-fed rats): 72% | plasma glucose after oral glucose versus control rats (rats): diminished at all time points | plasma insulin levels after oral glucose (rats): reduced plasma insulin levels | absorption of D-glucose from the jejunal test segment [3]: significantly reduce
